Test results from US12129229B2, “Amarouciaxanthin A esters and uses thereof” (GAT THERAPEUTICS, S.L., priority 2021, dated 2024).

Legend:
rodent models = details: Biochem Biophys Res Commun, 2020, 528, 305-310; cited from earlier work
[1] = ACX-Ac oral kinetic assay: plasma levels after intragastric administration; assay type: in vivo, mice Hsd:ICR (CD-1); details: female mice
Method: Immunocompetent mice from the strain Hsd:ICR (CD-1) (females, 6-7 weeks old from ENVIGO), were housed under sterile conditions at a constant temperature of 20-22° C. and relative humidity (45-65%) under daily cycles of light/darkness (12 hours). Sterilized water and food were available ad libitum.
Amarouciaxanthin A acetate (ACX-Ac) was dissolved at 1 mg/mL in a suitable vehicle and sterilized by filtration. Animals were weighted before the assay to determine the appropriate dispensing volume at 10 mL/kg. Formulation was administered once, intragastrically, at 10 mg/kg. Blood was collected at different time points, as stated in Table 1. It was extracted either through the facial vein or by intracardiac puncture (end points), on recipients containing 5 μL of 0.5 M EDTA.
Blood samples were analyzed by HPLC-MS/MS following proprietary analytical methods and the concentration of ACX in each sample was determined. A noncompartmental pharmacokinetic analysis was carried out using individual plasma concentrations versus sampling times by means of the PKPlus® software version 2.0 (Simulations Plus, Lancaster, CA 93534, USA).

CC1=CC(=O)CC(C)(C)[C@@]1(O)CC(=O)/C(C)=C/C=C/C(C)=C/C=C/C=C(C)/C=C/C=C(\C)C=C=C1C(C)(C)C[C@H](O)C[C@@]1(C)O [ACX, Amarouciaxanthin A]
effect on hepatic oxidative stress, inflammation, and fibrosis (rodent models): significantly inhibit hepatic oxidative stress, inflammation, and fibrosis

Amarouciaxanthin A acetate [ACX-Ac]
ACX-Ac in plasma samples ([1]; ACX-Ac 10 mg/kg once intragastrically, HPLC-MS/MS, 2 min to 72 h): not detected
area under the concentration-time curve (AUCt) of ACX ([1]; analyte ACX after ACX-Ac 10 mg/kg once intragastrically, noncompartmental analysis): 80.59 µM·h
Cmax ([1]; analyte ACX after ACX-Ac 10 mg/kg once intragastrically, noncompartmental analysis, read-out: maximum observed plasma concentration (Cmax) of ACX): 9.35 µM
